Test system: C. difficile spores
Test: Inhibition of germination of spores and/or inhibition of growth in Duncan and Foster growth medium
Type: cell-based, Clostridium difficile
Conditions: Clostridioides difficile; 0.7 mM in growth medium; by 17 h; read-out: inhibition of spore germination

For `CC/C=C\C/C=C\C/C=C\CCCCCCCC(=O)O` [linolenic acid], the inhibition at 700 µM was roughly 5%.

From US20080254010A1, “Controlling Clostridium difficile-Associated Disease in the Gastrointestinal Tract” (priority 2007, published 2008)
